Assay results: paper PMC5218480 (PLoS ONE, 2017)

System: MV-4-11 cells
Test: Gene expression microarray analysis (Affymetrix PrimeView) and GSEA
Type: cell-based, human
Set-up: RFU PODN (11730768_x_at) / Fold change /veh PODN (11730768_x_at) / RFU LINC00158 (11744669_a_at) / Fold change /veh LINC00158 (11744669_a_at) / RFU DUSP10 (11751237_a_at) / Fold change /veh DUSP10 (11751237_a_at) / RFU ID3 (11757404_x_at) / Fold change /veh ID3 (11757404_x_at) / RFU PLEKHG5 (11737974_s_at) / Fold change /veh PLEKHG5 (11737974_s_at) / RFU LRRC4B (11730491_at) / Fold change /veh LRRC4B (11730491_at) / RFU GIMAP4 (11747438_a_at) / Fold change /veh GIMAP4 (11747438_a_at) / RFU KRT8 (11758183_x_at) / Fold change /veh KRT8 (11758183_x_at) / RFU CNN1 (11734310_a_at) / Fold change /veh CNN1 (11734310_a_at) / RFU VPS37D (11726825_at) / Fold change /veh VPS37D (11726825_at) / RFU C10orf10 (11716522_x_at) / Fold change /veh C10orf10 (11716522_x_at) / RFU KIR2DL2 /// KIR2DL4 /// KIR2DL5A /// KIR2DL5B /// KIR2DS1 /// KIR2DS2 /// KIR2DS3 /// KIR2DS4 /// KIR3DL3 /// KIR3DL3 /// KIR3DS1 (11738374_at) / Fold change /veh KIR2DL2 /// KIR2DL4 /// KIR2DL5A /// KIR2DL5B /// KIR2DS1 /// KIR2DS2 /// KIR2DS3 /// KIR2DS4 /// KIR3DL3 /// KIR3DL3 /// KIR3DS1 (11738374_at) / RFU C1QL1 (11718748_at) / Fold change /veh C1QL1 (11718748_at) / RFU TMPRSS4 (11747572_a_at) / Fold change /veh TMPRSS4 (11747572_a_at) / RFU HAMP (11756126_x_at) / Fold change /veh HAMP (11756126_x_at) / RFU RNFT2 (11725882_a_at) / Fold change /veh RNFT2 (11725882_a_at) / RFU NR4A2 (11747474_a_at) / Fold change /veh NR4A2 (11747474_a_at) / RFU ABCC12 (11746883_a_at) / Fold change /veh ABCC12 (11746883_a_at) / RFU TMEM136 (11760407_x_at) / Fold change /veh TMEM136 (11760407_x_at) / RFU CLDN22 /// WWC2 (11732394_at) / Fold change /veh CLDN22 /// WWC2 (11732394_at) / RFU HLA-DPB1 (11760878_x_at) / Fold change /veh HLA-DPB1 (11760878_x_at) / RFU SPINT1 (11716480_a_at) / Fold change /veh SPINT1 (11716480_a_at) / RFU GAP43 (11754022_s_at) / Fold change /veh GAP43 (11754022_s_at) / RFU A4GNT (11735810_at) / Fold change /veh A4GNT (11735810_at) / RFU PRB3 (11715151_x_at) / Fold change /veh PRB3 (11715151_x_at) / RFU TUBB4B (11761932_at) / Fold change /veh TUBB4B (11761932_at) / RFU CAPN14 (11732068_a_at) / Fold change /veh CAPN14 (11732068_a_at) / RFU TMCC2 (11721928_a_at) / Fold change /veh TMCC2 (11721928_a_at) / RFU IRGQ (11745062_a_at) / Fold change /veh IRGQ (11745062_a_at) / RFU FAM174B (11720279_a_at) / Fold change /veh FAM174B (11720279_a_at) / RFU TMPRSS4 (11748680_a_at) / Fold change /veh TMPRSS4 (11748680_a_at) / RFU FAM212B (11763350_a_at) / Fold change /veh FAM212B (11763350_a_at) / RFU PLEKHG5 (11743358_a_at) / Fold change /veh PLEKHG5 (11743358_a_at) / RFU ZSCAN30 (11745921_a_at) / Fold change /veh ZSCAN30 (11745921_a_at) / RFU CMKLR1 (11741424_a_at) / Fold change /veh CMKLR1 (11741424_a_at) / RFU LOC101060620 /// MAPK8IP1 (11723275_at) / Fold change /veh LOC101060620 /// MAPK8IP1 (11723275_at) / RFU SPTSSB (11747773_x_at) / Fold change /veh SPTSSB (11747773_x_at) / RFU PRSS12 (11739890_at) / Fold change /veh PRSS12 (11739890_at) / RFU BIN1 (11741810_x_at) / Fold change /veh BIN1 (11741810_x_at) / RFU WNT11 (11732464_a_at) / Fold change /veh WNT11 (11732464_a_at) / RFU C10orf10 (11716521_a_at) / Fold change /veh C10orf10 (11716521_a_at) / RFU C5orf56 (11738089_at) / Fold change /veh C5orf56 (11738089_at) / RFU CYB561 (11721691_x_at) / Fold change /veh CYB561 (11721691_x_at) / RFU ANKRD19P (11752326_a_at) / Fold change /veh ANKRD19P (11752326_a_at) / RFU OR2T12 /// OR2T33 /// OR2T8 (11738714_s_at) / Fold change /veh OR2T12 /// OR2T33 /// OR2T8 (11738714_s_at) / RFU VCAN (11748164_a_at) / Fold change /veh VCAN (11748164_a_at) / RFU JSRP1 (11732532_at) / Fold change /veh JSRP1 (11732532_at) / RFU KRTAP10-11 (11738290_x_at) / Fold change /veh KRTAP10-11 (11738290_x_at) / RFU MYO3A (11730013_a_at) / Fold change /veh MYO3A (11730013_a_at) / RFU EBF3 (11725865_a_at) / Fold change /veh EBF3 (11725865_a_at) / RFU CAMK2N1 (11719241_x_at) / Fold change /veh CAMK2N1 (11719241_x_at) / RFU C5orf56 (11738088_a_at) / Fold change /veh C5orf56 (11738088_a_at) / RFU OLFML3 (11715873_a_at) / Fold change /veh OLFML3 (11715873_a_at) / RFU LOC100653217 /// NTM (11731650_a_at) / Fold change /veh LOC100653217 /// NTM (11731650_a_at) / RFU MAPK11 (11762145_a_at) / Fold change /veh MAPK11 (11762145_a_at) / RFU FIZ1 (11724087_x_at) / Fold change /veh FIZ1 (11724087_x_at) / RFU OASL (11726364_x_at) / Fold change /veh OASL (11726364_x_at) / RFU SOX15 (11748057_x_at) / Fold change /veh SOX15 (11748057_x_at) / RFU CD79A (11719716_a_at) / Fold change /veh CD79A (11719716_a_at) / RFU HIST1H1D (11736915_at) / Fold change /veh HIST1H1D (11736915_at) / RFU CASKIN2 (11723855_a_at) / Fold change /veh CASKIN2 (11723855_a_at) / RFU LOC730098 (11760151_x_at) / Fold change /veh LOC730098 (11760151_x_at) / RFU OR4N2 (11742367_at) / Fold change /veh OR4N2 (11742367_at) / RFU PRRT2 (11749266_a_at) / Fold change /veh PRRT2 (11749266_a_at) / RFU SNX32 (11753110_a_at) / Fold change /veh SNX32 (11753110_a_at) / RFU CDHR5 (11726645_a_at) / Fold change /veh CDHR5 (11726645_a_at) / RFU RCAN1 (11760418_a_at) / Fold change /veh RCAN1 (11760418_a_at) / RFU FAM167A (11723789_a_at) / Fold change /veh FAM167A (11723789_a_at) / RFU FAM26E (11764081_at) / Fold change /veh FAM26E (11764081_at) / RFU ISYNA1 (11749810_s_at) / Fold change /veh ISYNA1 (11749810_s_at) / RFU ACY1 (11761880_at) / Fold change /veh ACY1 (11761880_at) / RFU 11764098_at / Fold change /veh 11764098_at / RFU SAMD14 (11745864_x_at) / Fold change /veh SAMD14 (11745864_x_at) / RFU NPB (11741838_a_at) / Fold change /veh NPB (11741838_a_at) / RFU TMPRSS6 (11731388_a_at) / Fold change /veh TMPRSS6 (11731388_a_at) / RFU KRTAP10-2 (11738614_at) / Fold change /veh KRTAP10-2 (11738614_at) / RFU ARHGAP8 /// PRR5-ARHGAP8 (11727945_x_at) / Fold change /veh ARHGAP8 /// PRR5-ARHGAP8 (11727945_x_at) / RFU KRTAP5-7 /// NADSYN1 (11734609_at) / Fold change /veh KRTAP5-7 /// NADSYN1 (11734609_at) / RFU RASL12 (11751679_a_at) / Fold change /veh RASL12 (11751679_a_at) / RFU CDKN2B (11736163_a_at) / Fold change /veh CDKN2B (11736163_a_at) / RFU PRF1 (11729649_at) / Fold change /veh PRF1 (11729649_at) / RFU, ZNF638 /// ZNF638-IT1 / Fold change vs veh, ZNF638 /// ZNF638-IT1 / RFU, PANK3 / Fold change vs veh, PANK3 / RFU, SH3YL1 / Fold change vs veh, SH3YL1 / RFU, ZEB2 / Fold change vs veh, ZEB2 / RFU, NRIP1 / Fold change vs veh, NRIP1 / RFU, PTTG1IP / Fold change vs veh, PTTG1IP / RFU, CAPN2 / Fold change vs veh, CAPN2 / RFU, MED14 / Fold change vs veh, MED14 / RFU, SNORA58 / Fold change vs veh, SNORA58 / RFU, C1orf63 / Fold change vs veh, C1orf63 / RFU, LRRFIP1 / Fold change vs veh, LRRFIP1 / RFU, NDUFAF7 / Fold change vs veh, NDUFAF7 / RFU, SLC12A2 / Fold change vs veh, SLC12A2 / RFU, IBTK / Fold change vs veh, IBTK / RFU, ESF1 / Fold change vs veh, ESF1 / Fold change vs veh, TMEM50B / RFU, TAOK1 / Fold change vs veh, TAOK1 / RFU, ACBD3 / Fold change vs veh, ACBD3 / RFU, TMA16 / Fold change vs veh, TMA16 / RFU, RWDD3 / Fold change vs veh, RWDD3 / RFU, BCAT1 / Fold change vs veh, BCAT1 / RFU, EDEM3 / Fold change vs veh, EDEM3 / RFU, TMEM33 / Fold change vs veh, TMEM33 / RFU, WDR75 / Fold change vs veh, WDR75 / RFU, AHCTF1 / Fold change vs veh, AHCTF1 / RFU, TFRC / Fold change vs veh, TFRC / RFU, ZDHHC17 / Fold change vs veh, ZDHHC17 / RFU, NOM1 / Fold change vs veh, NOM1 / RFU, ARL8B / Fold change vs veh, ARL8B / RFU, ZBTB11 / Fold change vs veh, ZBTB11 / RFU, TAMM41 / Fold change vs veh, TAMM41 / RFU, KIAA1704 /// LOC100996395 / Fold change vs veh, KIAA1704 /// LOC100996395 / RFU, ING1 / Fold change vs veh, ING1 / RFU, TRMT61B / Fold change vs veh, TRMT61B / RFU, FUBP3 / Fold change vs veh, FUBP3 / RFU, TP53 / Fold change vs veh, TP53 / RFU, TNKS2 / Fold change vs veh, TNKS2 / RFU, ZFP14 / Fold change vs veh, ZFP14 / RFU, ACTR2 / Fold change vs veh, ACTR2 / RFU, PPP3R1 / Fold change vs veh, PPP3R1 / RFU, PIK3R1 / Fold change vs veh, PIK3R1 / RFU, HNRNPA1 / Fold change vs veh, HNRNPA1 / RFU, RNF170 / Fold change vs veh, RNF170 / RFU, ZNF28 / Fold change vs veh, ZNF28 / RFU, RNGTT / Fold change vs veh, RNGTT / RFU, OGT / Fold change vs veh, OGT / RFU, BRD1 / Fold change vs veh, BRD1 / RFU, MARS / Fold change vs veh, MARS / RFU, ZNF655 / Fold change vs veh, ZNF655 / RFU, FAHD1 / Fold change vs veh, FAHD1 / RFU, BDP1 / Fold change vs veh, BDP1 / RFU, LRRCC1 / Fold change vs veh, LRRCC1 / RFU, ARID1A / Fold change vs veh, ARID1A / RFU, ZNF146 / Fold change vs veh, ZNF146 / RFU, ZNF330 / Fold change vs veh, ZNF330 / RFU, GPN3 / Fold change vs veh, GPN3 / RFU, C9orf123 / Fold change vs veh, C9orf123 / RFU, N4BP2L2 / Fold change vs veh, N4BP2L2 / RFU, ARFIP1 / Fold change vs veh, ARFIP1 / RFU, FAM179B / Fold change vs veh, FAM179B / RFU, BCL10 / Fold change vs veh, BCL10 / RFU, UHRF1BP1L / Fold change vs veh, UHRF1BP1L / RFU, BET1 / Fold change vs veh, BET1 / RFU, CNOT2 / Fold change vs veh, CNOT2 / RFU, ZNF268 / Fold change vs veh, ZNF268 / Fold change vs veh, ZNF507 / RFU, DGCR2 / Fold change vs veh, DGCR2 / RFU, WDSUB1 / Fold change vs veh, WDSUB1 / Fold change vs veh, HSP90B1 /// MIR3652 / RFU, ADSS / Fold change vs veh, ADSS / RFU, GK / Fold change vs veh, GK / RFU, ZNF148 / Fold change vs veh, ZNF148 / RFU, TAF9 / Fold change vs veh, TAF9 / RFU, SLC1A5 / Fold change vs veh, SLC1A5 / RFU, SLMO2 / Fold change vs veh, SLMO2 / RFU, ABCC4 / Fold change vs veh, ABCC4 / RFU, LOC101060439 /// RAP1B / Fold change vs veh, LOC101060439 /// RAP1B / RFU, RFX7 / Fold change vs veh, RFX7 / RFU, GTPBP10 / Fold change vs veh, GTPBP10 / RFU, CNEP1R1 / Fold change vs veh, CNEP1R1 / RFU, BIVM-ERCC5 /// ERCC5 / Fold change vs veh, BIVM-ERCC5 /// ERCC5 / RFU, ILF3 / Fold change vs veh, ILF3 / RFU 11762660_at / Fold change /veh 11762660_at / RFU VCAN (11757783_s_at) / Fold change /veh VCAN (11757783_s_at) / RFU DDX43 (11728927_at) / Fold change /veh DDX43 (11728927_at) / RFU KRT8 (11758188_x_at) / Fold change /veh KRT8 (11758188_x_at) / RFU NKD1 (11759106_at) / Fold change /veh NKD1 (11759106_at) / RFU SRD5A1 (11742802_a_at) / Fold change /veh SRD5A1 (11742802_a_at) / RFU TPSAB1 /// TPSB2 (11721975_s_at) / Fold change /veh TPSAB1 /// TPSB2 (11721975_s_at) / RFU GSTM3 (11746129_a_at) / Fold change /veh GSTM3 (11746129_a_at) / RFU IL23R (11737362_x_at) / Fold change /veh IL23R (11737362_x_at) / RFU TMEM51 (11727254_a_at) / Fold change /veh TMEM51 (11727254_a_at) / RFU PIWIL2 (11732686_x_at) / Fold change /veh PIWIL2 (11732686_x_at) / RFU ORM1 (11744905_x_at) / Fold change /veh ORM1 (11744905_x_at) / RFU CCDC152 (11743942_at) / Fold change /veh CCDC152 (11743942_at) / RFU ECM1 (11717891_a_at) / Fold change /veh ECM1 (11717891_a_at) / RFU IL23R (11748794_a_at) / Fold change /veh IL23R (11748794_a_at) / RFU TNFAIP8L3 (11732012_x_at) / Fold change /veh TNFAIP8L3 (11732012_x_at) / RFU MBOAT4 (11741988_at) / Fold change /veh MBOAT4 (11741988_at) / RFU 11764193_at / Fold change /veh 11764193_at / RFU TMEM53 (11763286_at) / Fold change /veh TMEM53 (11763286_at) / RFU MAGEB2 (11727129_at) / Fold change /veh MAGEB2 (11727129_at) / RFU TMEM200A (11744735_a_at) / Fold change /veh TMEM200A (11744735_a_at) / RFU CCDC152 (11751479_a_at) / Fold change /veh CCDC152 (11751479_a_at) / RFU FAM211A (11726209_a_at) / Fold change /veh FAM211A (11726209_a_at) / RFU RGS16 (11746705_a_at) / Fold change /veh RGS16 (11746705_a_at) / RFU VCAN (11755009_s_at) / Fold change /veh VCAN (11755009_s_at) / RFU RHOB (11743442_s_at) / Fold change /veh RHOB (11743442_s_at) / RFU RGS16 (11720943_a_at) / Fold change /veh RGS16 (11720943_a_at) / RFU RGS16 (11720944_at) / Fold change /veh RGS16 (11720944_at) / RFU, VPS4B / Fold change vs veh, VPS4B / RFU, CREB1 / Fold change vs veh, CREB1 / RFU, DNAJC13 / Fold change vs veh, DNAJC13 / RFU, GNAQ / Fold change vs veh, GNAQ / RFU, CDK5R1 / Fold change vs veh, CDK5R1 / RFU, ZRANB3 / Fold change vs veh, ZRANB3 / RFU, CUL4A / Fold change vs veh, CUL4A / RFU, CCNY / Fold change vs veh, CCNY / RFU, UFL1 / Fold change vs veh, UFL1 / RFU, COG3 / Fold change vs veh, COG3 / RFU, DIAPH2 / Fold change vs veh, DIAPH2 / RFU, SKA2 / Fold change vs veh, SKA2 / RFU, AFF3 / Fold change vs veh, AFF3 / RFU, LMF1 / Fold change vs veh, LMF1 / RFU, IPO11 / Fold change vs veh, IPO11 / RFU, DFFB / Fold change vs veh, DFFB / RFU, FOXP1 / Fold change vs veh, FOXP1 / RFU, CARD8 / Fold change vs veh, CARD8 / RFU, STRN3 / Fold change vs veh, STRN3 / RFU, ADK / Fold change vs veh, ADK / RFU, RASSF2 / Fold change vs veh, RASSF2 / RFU, WIPF1 / Fold change vs veh, WIPF1 / RFU, LARP1B / Fold change vs veh, LARP1B / RFU, RASA1 / Fold change vs veh, RASA1 / RFU, RB1 / Fold change vs veh, RB1 / RFU, PPFIA1 / Fold change vs veh, PPFIA1 / RFU, MAT2A / Fold change vs veh, MAT2A / RFU, CCT5 / Fold change vs veh, CCT5 / RFU, WDR92 / Fold change vs veh, WDR92 / RFU, CUX1 / Fold change vs veh, CUX1 / RFU, TTC7A / Fold change vs veh, TTC7A / RFU, TMEM135 / Fold change vs veh, TMEM135 / RFU, DEPTOR / Fold change vs veh, DEPTOR / RFU, CPM / Fold change vs veh, CPM / RFU, DNAJB6 / Fold change vs veh, DNAJB6 / RFU, CACNA2D3 / Fold change vs veh, CACNA2D3 / RFU, DTX4 / Fold change vs veh, DTX4 / RFU, TFCP2 / Fold change vs veh, TFCP2 / RFU, GMCL1 /// GMCL1P1 / Fold change vs veh, GMCL1 /// GMCL1P1 / RFU, AEBP2 / Fold change vs veh, AEBP2 / RFU, SNHG1 /// SNORD22 /// SNORD25 /// SNORD26 /// SNORD27 /// SNORD28 /// SNORD29 /// SNORD31 / Fold change vs veh, SNHG1 /// SNORD22 /// SNORD25 /// SNORD26 /// SNORD27 /// SNORD28 /// SNORD29 /// SNORD31 / Fold change (Aza/veh), C12orf56 (ProbeSet 11735607_a_at) / Fold change (ACY-1035/veh), C12orf56 (ProbeSet 11735607_a_at) / Fold change (Aza/veh), FGFR1OP (ProbeSet 11751329_s_at) / Fold change (ACY-1035/veh), FGFR1OP (ProbeSet 11751329_s_at) / Fold change (Aza/veh), VPS36 (ProbeSet 11739960_a_at) / Fold change (ACY-1035/veh), VPS36 (ProbeSet 11739960_a_at) / RFU SYPL1 (11715823_x_at) / Fold change /veh SYPL1 (11715823_x_at) / RFU IGFBP7 (11715501_s_at) / Fold change /veh IGFBP7 (11715501_s_at) / RFU REEP3 (11722064_at) / Fold change /veh REEP3 (11722064_at) / RFU IGLL1 (11728026_x_at) / Fold change /veh IGLL1 (11728026_x_at): dose or concentration left out as unconfirmed
Conditions: ProbeSet 11720269_a_at; LIST B

SMILES: Nc1ccc(-c2cccs2)cc1NC(=O)c1ccc2c(c1)cc(C1CC1)n2CCN1CCOCC1 [ACY-1035]
- RFU, IBTK: 758.00 RFU
